Data: patent US20190328752A1, “COMPOUNDS FOR THE TREATMENT OF NIEMANN-PICK DISEASE TYPE C1” (UNIVERSITEIT MAASTRICHT, priority 2016, published 2019)
Read-outs that look alike come from different tables or passages of the source.

Experiments:
[1] = in vivo; cited from earlier work
NPC1mut BMDMs [2] = test: TNFα secretion (ELISA) by oxLDL/LPS-stimulated BMDMs, mutant; assay type: cell-based, mice; conditions: 0.6 μM sitostanol 4 hours after oxLDL, then LPS; vs carrier control; p=0.000; FIG. 1A
Description: (§1) Bone-marrow derived cells (BMDCs) were isolated from tibea and femurs of NPC1 wild type (WT) and mutant mice on a C57BL/6 background. BMDCs were cultured for 8-9 days in RPMI-1640 (GIBCO Invitrogen, Breda, The Netherlands) with 10% heat-inactivated fetal calf serum (Bodinco B. V. Alkmaar, The Netherlands), penicillin (100 U/ml), streptomycin (100 μg/ml) and L-glutamine (2 mM) (all GIBCO invitrogen, Breda, The Netherlands) enriched with 20% L929-conditioned medium (LCM) to generate bone marrow-derived macrophages (BMDMs). After attachment, the BMDMs were seeded at 350,000 cells per well in 24 wells plates and incubated with oxLDL for 24. After the oxLDL stimulation, the cells were washed and incubated with cyclodextrin (carrier control) or 0.6 μM sitostanol for 4 hours. The BMDMs were subsequently washed and stimulated with 100 ng/ml LPS for 4 hours to generate an inflammatory response. Finally, BMDMs were lysed for RNA isolation. Gene expression analysis of inflammatory (TNFα, Arginase 1 and inducible NOS), anti-inflammatory (IL-10) and lysosomal cholesterol trafficking (NPC1 and NPC2) genes was performed. […]
(§2) Mouse TNFα secreted protein levels were determined by using the TNFα ELISA kit (mouse TNFα ELISA Ready-SET-Go!, eBioscience, San Diego, Calif.). […] Optical density (OD) was measured at 450 nm by using a spectrophotometer and TNFα concentrations were determined.

[3] = humans, cited from earlier work
NPC1WT BMDMs [4] = test: TNFα secretion (ELISA) by oxLDL/LPS-stimulated BMDMs, wild type; assay type: cell-based, mice; conditions: 0.6 μM sitostanol 4 hours after oxLDL, then LPS; vs carrier control; p=0.000; FIG. 1A
Description: as §1, §2

NPC1mut BMDMs [5] = test: Gene expression of inflammatory mediators in oxLDL/LPS-stimulated BMDMs, mutant; assay type: cell-based, mice; conditions: FIG. 1B
Description: (§3) Bone-marrow derived cells (BMDCs) were isolated from tibea and femurs of NPC1 wild type (WT) and mutant mice on a C57BL/6 background. BMDCs were cultured for 8-9 days in RPMI-1640 (GIBCO Invitrogen, Breda, The Netherlands) with 10% heat-inactivated fetal calf serum (Bodinco B. V. Alkmaar, The Netherlands), penicillin (100 U/ml), streptomycin (100 μg/ml) and L-glutamine (2 mM) (all GIBCO invitrogen, Breda, The Netherlands) enriched with 20% L929-conditioned medium (LCM) to generate bone marrow-derived macrophages (BMDMs). After attachment, the BMDMs were seeded at 350,000 cells per well in 24 wells plates and incubated with oxLDL for 24. After the oxLDL stimulation, the cells were washed and incubated with cyclodextrin (carrier control) or 0.6 μM sitostanol for 4 hours. The BMDMs were subsequently washed and stimulated with 100 ng/ml LPS for 4 hours to generate an inflammatory response. Finally, BMDMs were lysed for RNA isolation. Gene expression analysis of inflammatory (TNFα, Arginase 1 and inducible NOS), anti-inflammatory (IL-10) and lysosomal cholesterol trafficking (NPC1 and NPC2) genes was performed. Furthermore, the supernatant was frozen until protein expression analysis of the pro-inflammatory TNFα was performed by Enzyme-Linked Immunosorbent Assay (ELISA).

NPC1WT BMDMs [6] = test: Gene expression of inflammatory mediators in oxLDL/LPS-stimulated BMDMs, wild type; assay type: cell-based, mice; conditions: 0.6 μM sitostanol; p=0.028; FIG. 1B
Description: as §3

Question: With cyclodextrin as the compound, how does the “ability to cross the blood brain barrier” value [1] read?
Answer: inability of cyclodextrin to cross the blood brain barrier

Question: For CC[C@H](CC[C@@H](C)[C@H]1CC[C@H]2[C@@H]3CC[C@H]4C[C@@H](O)CC[C@]4(C)[C@H]3CC[C@]12C)C(C)C [sitostanol], which TNFα secretion (NPC1mut BMDMs [2]) is on record?
Answer: significantly reduced

Question: What about the plasma concentration ([3]; 3 grams per day) of the same compound?
Answer: 40.9 microgram per dl

Question: And the plasma concentration ([3]; 9 grams per day)?
Answer: 57.2 microgram per dl

Question: And the TNFα secretion (NPC1WT BMDMs [4])?
Answer: significantly reduced

Question: What about the “gene expression of arginase 1 (M2 macrophage marker)” value (NPC1mut BMDMs [5]; 0.6 μM sitostanol vs carrier control, p=0.000) of the same compound?
Answer: significantly increased

Question: What about the “gene expression of Tnfα” value (NPC1mut BMDMs [5]; 0.6 μM sitostanol vs carrier control, p=0.136) of the same compound?
Answer: trend towards reduced expression

Question: What about the “iNOS/arginase 1 gene expression ratio” value (NPC1mut BMDMs [5]; 0.6 μM sitostanol vs control-treated NPC1mut BMDMs, p=0.074) of the same compound?
Answer: trend towards a reduced

Question: And the “gene expression of IL-10” value (NPC1WT BMDMs [6])?
Answer: increased
